# Test results reported in patent US20070083333A1, “Modeling of systemic inflammatory response to infection” (priority 2003, published 2007).
# Several values for one entry are separate records, joined by “and”; a condition that tells them apart may be missing. Identical values can stand only once.
# Experiments:
# [1] = system: irradiated C3H/HeN mice infected with E. coli strain Bort; assay: VEGF receptor antagonists (Compounds I and II): survival, bacterial counts, time of euthanasia; type: in vivo, mouse; conditions: for Bacterial counts: blood bacterial count of individual animal bled at 40 hours after infection, 100 mg/Kg injected 16 hours after infection, FD given where no count; for Bacterial counts / Time of Death: 100 mg/kg; for Status: individual animal survival status code (1 or 0, not defined; 0 only at 168); for Time of Death: individual animal, time of death/euthanasia (hours after infection), 100 mg/Kg, ceftriaxone 50 ug/mouse at 40 hours
# Method: (§1) Mice were pouched six days and irradiated five days before infection. Eight- to 12-week-old C3H/HeN mice were anesthetized with isofluorane and wiped with alcohol in the area caudal to their ears. Pouches were created at this site by subcutaneous injection of 2-3 ml of air, followed by the subcutaneous injection of 0.2 ml of a 0.5% solution of croton oil in olive oil. Twenty-four hours later, mice were irradiated using a gamma irradiator. Five days after irradiation, animals were infected with E. coli strain Bort by direct injection of the bacterial suspension into the pouches. After infection, animals were treated as described for each individual experiment. Animals were checked daily for signs of pain and distress, including diarrhea, lethargy, ruffled fur, lack of appetite, and poor body condition. Animals were euthanized when they became very lethargic and unable to move when touched. It was previously determined that when mice reach such conditions they will die within 6-8 hours.
# Using the procedure described above, 76 mice were pouched, irradiated (495 rads) and infected (0.2 ml of 0.1 OD 600).
# (II) (see WO 98/13354 and WO 00/132651). At 40 hours after infection, animals were bled and injected with the same solutions to which ceftriaxone was added to yield a solution containing 50 ug/mouse. Animals were injected with the solutions (no ceftriaxone) for 2 more days. Blood was used for BC and plasma. Two aliquots of 20 ul and an extra aliquot were prepared and stored at −80.
# [2] = system: irradiated (490 rads) C3H/HeN mice with infected subcutaneous pouch; assay: Immunocompromised mouse model of contained infection: ceftriaxone treatment, spleen CFU at death and survival; type: in vivo; conditions: Ceftriaxone 0.3 mg/mouse daily
# Excerpt: In order to test therapies intended at controlling systemic inflammatory response rather than the infection, it is desirable to control the infection to avoid problems that can derive from a high bacterial load. To this end we controlled the infection by using antibiotics. In this experiment, a subcutaneous pouch was induced in C3H/HeN animals. […] At Day 6 after induction of the pouches, mice were infected with 4.5×10^6 CFU/mouse. As animals became sick (as detected by a ruffled fur), each animal was assigned to one of two different groups, i.e. a group to be treated with 0.3 mg/mouse of ceftriaxone and a group to stay untreated. […] Once an animal was assigned to the treated group, it received a daily injection of antibiotic until the animal succumbed to death. […] At death, spleens were removed from the animals, homogenized in PBS, and the CFU determined.
# The bacterial counts in the spleens of treated animals are about 3 logs of magnitude lower than in the untreated animals. The conditions employed should therefore be useful for testing therapies to prevent the progression from sepsis to septic shock in the absence of overwhelming bacterial infection.
# [3] = system: irradiated C3H/HeN mice infected with E. coli strain Bort; assay: Ethyl pyruvate plus ceftriaxone, survival in immunocompromised infected mouse model; type: in vivo; conditions: for Bacterial counts / Status / Status.dead / Time death: one animal per row, listed as EP; for Status: 1 = dead, 0 = alive
# Method: as §1, with “touched.” for “touched. It was previously determined that when mice reach such conditions they will die within 6-8 hours.”
# Mice were pouched and irradiadiated as described above. The mice were assigned to four different groups: (1) ten mice were untreated (control mice); (2) nineteen mice were treated with 0.1 mg/mouse of ceftriaxone (CEF) once every 24 hours […] (saline control mice); (3) twenty mice were treated with 0.1 mg/mouse ceftriaxone and 35 mg/ml ethyl pyruvate once every 24 hours for four days (EP mice); and (4) ten mice were treated as for group (3) and received an additional injection of 35 mg/ml of EP at 30 and 54 hour timepoints (EP 2x mice).
compound,measurement,setting,value
COc1cc2c(Nc3ccc(Br)cc3F)ncnc2cc1OCC1CCN(C)CC1 [Compound II],Bacterial counts,[1],1.0E+09 and 1.0E+07 and 9.0E+06 and 3.0E+06 and 2.0E+06 (3×) and 5.0E+05 and 3.0E+05 (2×) and 5.0E+04 and 3.0E+04 and 1.6E+04 and 2.0E+03 and 1.0E+02 (2×) and <100 (9×)
same,Status,[1],1 (23×) and 0 (4×)
same,Time of Death,[1],40 (2×) and 46 (4×) and 48 (7×) and 64 (4×) and 160 (3×) and 112 (3×) and 168 (4×)
"CO/N=C(\C(=O)N[C@@H]1C(=O)N2C(C(=O)O)=C(CSc3nc(=O)c(=O)[nH]n3C)CS[C@H]12)c1csc(N)n1 [Ceftriaxone, ceftriaxone]","CFU/spleen, Average",[2]; average of treated animals,7.01E+05 CFU/spleen
same,CFU/spleen,"[2]; spleens removed at death, single animals",2.60E+04 CFU/spleen and 3.00E+03 CFU/spleen and 8.00E+03 CFU/spleen and 8.00E+05 CFU/spleen (2×) and 1.80E+04 CFU/spleen and 6.00E+02 CFU/spleen and 1.20E+04 CFU/spleen and 2.00E+03 CFU/spleen and 4.00E+04 CFU/spleen and 6.00E+06 CFU/spleen
CC(C)(N)c1ccc(-c2nc(Nc3ccc(CCN4CCOCC4)cc3)ncc2C#N)cc1 [Compound I],Bacterial counts,[1],1.3E+07 and 4.0E+06 and 3.0E+06 and 2.0E+06 and 1.0E+06 and 3.0E+05 (3×) and 2.0E+05 (2×) and 3.0E+04 and 1.7E+03 and 1.0E+03 and 1.0E+02 (5×) and <100 (7×)
same,Status,[1],1 (27×) and 0
same,Time of Death,[1],40 (3×) and 46 (5×) and 48 (4×) and 64 and 88 and 94 and 112 (8×) and 160 and 96 (3×) and 168
CCOC(=O)C(C)=O [ethyl pyruvate],survival relative to nontreated or CEF-treated controls,"[3]; 35 mg/ml ethyl pyruvate with 0.1 mg/mouse ceftriaxone, every 24 hours for four days (EP) or with extra doses at 30 and 54 h (EP 2x)",significant survival advantage
same,Bacterial counts,[3]; Group 3 (EP mice): 0.1 mg/mouse ceftriaxone and 35 mg/ml ethyl pyruvate once every 24 hours for four days,1.0E+04 and 3.0E+04 and 1.2E+05 and 2.0E+05 (3×) and 3.0E+05 (2×) and 1.3E+04 and 2.5E+04 and 3.5E+04 and 6.5E+04 and 7.6E+04 and 8.0E+04 and 1.2E+04 and 2.0E+03 and 1.6E+03 (2×) and 1.6E+04 and 4.0E+04
same,Status,[3]; Group 3 (EP mice),1 (19×) and 0
same,Status.dead,[3]; Group 3 (EP mice),DEAD (19×) and ALIVE
same,Time death,[3]; Group 3 (EP mice),48 (6×) and 54 (8×) and 56 and 78 and 102 and 168 and 174 (2×)
same,Bacterial counts,[3]; Group 4 (EP 2x mice): as group 3 plus additional 35 mg/ml EP at 30 and 54 hour timepoints,2.0E+05 and 5.0E+04 (2×) and 3.0E+04 (2×) and 1.0E+04 and 1.7E+03 and 0.0E+00 and 1.0E+03 and 2.4E+03
same,Status,[3]; Group 4 (EP 2x mice),1 (7×) and 0 (3×)
same,Status.dead,[3]; Group 4 (EP 2x mice),DEAD (7×) and ALIVE (3×)
same,Time death,[3]; Group 4 (EP 2x mice),48 and 54 and 62 and 72 and 96 and 168 (2×) and 174 (3×)
